The target in assay [1] is Human LATS2 catalytic domain (Homo sapiens (Human), UniProt Q9NRM7). The experiment in a line: LATS2 High ATP HTRF Assay. It is filed as biochemical. Particulars: no asterisk: LATS2 High ATP HTRF Assay, 5000 μM ATP, 0.05 nM LATS2. In short, it runs like this: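 Phosphorylation of 0.5 μM STK S1 peptide at high ATP (5000 μM), 2 h at room temperature, by 0.05 nM LATS2 kinase domain/Mob1b complex after 10 min compound pre-incubation. Ki derived from HTRF-based IC50 (4-parameter logistic) by Cheng-Prusoff, ATP Km 105 μM.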
Chain of Human LATS2 catalytic domain (Q9NRM7 553-1088): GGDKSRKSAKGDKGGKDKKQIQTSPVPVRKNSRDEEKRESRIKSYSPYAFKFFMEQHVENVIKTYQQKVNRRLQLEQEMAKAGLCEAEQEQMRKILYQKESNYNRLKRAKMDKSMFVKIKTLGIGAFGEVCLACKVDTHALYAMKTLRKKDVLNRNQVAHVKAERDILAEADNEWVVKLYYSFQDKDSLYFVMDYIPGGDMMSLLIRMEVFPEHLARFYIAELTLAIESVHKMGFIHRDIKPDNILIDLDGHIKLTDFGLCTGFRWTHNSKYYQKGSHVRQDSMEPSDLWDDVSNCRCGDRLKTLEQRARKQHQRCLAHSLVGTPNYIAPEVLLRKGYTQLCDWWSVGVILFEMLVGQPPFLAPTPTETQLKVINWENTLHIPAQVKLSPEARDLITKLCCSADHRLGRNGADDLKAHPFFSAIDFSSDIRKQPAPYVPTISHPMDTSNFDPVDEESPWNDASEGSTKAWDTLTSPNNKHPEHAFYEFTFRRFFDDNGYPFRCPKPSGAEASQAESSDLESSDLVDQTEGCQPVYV
Chain of Human LATS2 catalytic domain (Q7L9L4 whole entry partner, the tested form may be a part): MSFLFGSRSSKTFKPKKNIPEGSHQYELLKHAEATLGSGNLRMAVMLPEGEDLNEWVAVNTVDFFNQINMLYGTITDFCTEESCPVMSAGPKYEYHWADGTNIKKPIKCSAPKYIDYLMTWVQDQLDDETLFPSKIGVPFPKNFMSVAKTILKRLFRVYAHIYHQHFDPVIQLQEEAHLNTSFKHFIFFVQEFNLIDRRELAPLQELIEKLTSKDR

Assay [2] has as its system TAZ nuclear translocation in SW1990 cells. Kind of assay: TAZ Nuclear Translocation Assay. It is filed as cell-based. Particulars: Homo sapiens, 4 hours. The procedure, abridged: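 SW1990 cells in RPMI1640/10% FBS treated with compounds for 4 h at 37 °C, then fixed and immunostained for TAZ with Hoechst nuclear counterstain and imaged by high-content imaging. Read-out is the nuclear/cytoplasmic-ring fluorescence ratio, normalized to DMSO (0%) and an inhibitor control (100%); EC50 from four-parameter fit.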

The Ki is a measure of affinity in units of concentration, obtained from inhibition or displacement. Usually EC50 stands for the concentration at which the effect is half-maximal. High values mean lower potency in that assay, low ones higher potency in that assay. In assay [1], `C#CCN1CCC2(CCN(c3nc(-c4ccncc4)nc4cnccc34)CC2)C1` [Compound 261, 4-(2-(prop-2-yn-1-yl)-2,8-diazaspiro[4.5]decan-8-yl)-2-(pyridin-4-yl)pyrido[3,4-d]pyrimidine] gave a Ki of 0.1 nM. Also, the EC50 in assay [2] came out at 580 nM.
Regarding `Cc1[nH]ncc1-c1nc(N2CCC3(CCN(C)C3)CC2)c2ccnc(Cl)c2n1` [Compound 262, 8-chloro-2-(5-methyl-1H-pyrazol-4-yl)-4-(2-methyl-2,8-diazaspiro[4.5]decan-8-yl)pyrido[3,4-d]pyrimidine], the affinity in assay [1], expressed as Ki, was 0.028 nM. In assay [2], this molecule displayed an EC50 of 250 nM.
In assay [1], `COCCOc1cncc2nc(-c3ccncc3)nc(N3CCC4(CCNC4)CC3)c12` [Compound 263, 5-(2-methoxyethoxy)-2-(pyridin-4-yl)-4-(2,8-diazaspiro[4.5]decan-8-yl)pyrido[3,4-d]pyrimidine] yielded a Ki of 0.11 nM. Besides, the EC50 in assay [2] was 1200 nM.
In assay [1], `COc1cncc2nc(-c3c[nH]nc3C)nc(N3CCC4(CCN(C)C4)CC3)c12` [Compound 264, 5-methoxy-2-(3-methyl-1H-pyrazol-4-yl)-4-(2-methyl-2,8-diazaspiro[4.5]decan-8-yl)pyrido[3,4-d]pyrimidine] gave a Ki of 0.026 nM. Besides, the response in assay [2] was half-maximal at 170 nM (EC50).
Taken in the same sequence, the figures for `COc1cncc2nc(-c3c[nH]nc3C)nc(N3CCC4(CCN(CC(C)(C)O)C4)CC3)c12` [Compound 265, 1-(8-(5-methoxy-2-(3-methyl-1H-pyrazol-4-yl)pyrido[3,4-d]pyrimidin-4-yl)-2,8-diazaspiro[4.5]decan-2-yl)-2-methylpropan-2-ol] were 0.047 nM and 240 nM.
As for `CN1CCC2(CCN(c3nc(-c4ccncc4)nc4c(Cl)nccc34)CC2)C1` [Compound 266, 8-chloro-4-(2-methyl-2,8-diazaspiro[4.5]decan-8-yl)-2-(pyridin-4-yl)pyrido[3,4-d]pyrimidine], in assay [1], the affinity corresponds to a Ki of 0.37 nM. Besides, in assay [2], it took 1100 nM to reach a half-maximal effect (EC50).
Consider `FCOc1cncc2nc(-c3ccncc3)nc(N3CCC4(CCNC4)CC3)c12` [Compound 267, 5-(fluoromethoxy)-2-(pyridin-4-yl)-4-(2,8-diazaspiro[4.5]decan-8-yl)pyrido[3,4-d]pyrimidine], for which the Ki in assay [1] worked out at 0.028 nM. In assay [2], this molecule came in with a half-maximal effective concentration (EC50) of 360 nM.
With `CC(C)(O)CN1CCC2(CCN(c3nc(-c4ccncc4)nc4cncc(OC5COC5)c34)CC2)C1` [Compound 268, 2-Methyl-1-(8-(5-(oxetan-3-yloxy)-2-(pyridin-4-yl)pyrido[3,4-d]pyrimidin-4-yl)-2,8-diazaspiro[4.5]decan-2-yl)propan-2-o0], in assay [1], the Ki amounted to 0.034 nM. This molecule yielded an EC50 in assay [2] of 130 nM.
In the same order, the values of `CN1CCC2(CCN(c3nc(-c4ccncc4)nc4cncc(OC5COC5)c34)CC2)C1` [Compound 269, 4-(2-Methyl-2,8-diazaspiro[4.5]decan-8-yl)-5-(oxetan-3-yloxy)-2-(pyridin-4-yl)pyrido[3,4-d]pyrimidine] are 0.034 nM and 210 nM.
For `CN1CCC2(CCN(c3nc(-c4ccncc4)nc4cncc(OCC5COC5)c34)CC2)C1` [Compound 270, 4-(2-Methyl-2,8-diazaspiro[4.5]decan-8-yl)-5-(oxetan-3-ylmethoxy)-2-(pyridin-4-yl)pyrido[3,4-d]pyrimidine], in assay [1], the affinity corresponds to a Ki of 0.15 nM. In assay [2], this molecule yielded a 50% effective concentration (EC50) of 860 nM.
As to `C#CC(C)(O)CN1CCC2(CCN(c3nc(-c4ccncc4)nc4cnccc34)CC2)C1` (stereo not shown) [Compound 271, 2-methyl-1-(8-(2-(pyridin-4-yl)pyrido[3,4-d]pyrimidin-4-yl)-2,8-diazaspiro[4.5]decan-2-yl)but-3-yn-2-ol], the Ki in assay [1] was determined as 0.041 nM. Further, the response in assay [2] was half-maximal at 330 nM (EC50).
`Clc1nccc2c(N3CCC4(CCNC4)CC3)nc(-c3ccncc3)nc12` [Compound 272, 8-chloro-2-(pyridin-4-yl)-4-(2,8-diazaspiro[4.5]decan-8-yl)pyrido[3,4-d]pyrimidine trifluoro acetate] returned a Ki in assay [1] of 0.31 nM. Besides, the half-maximal effective concentration (EC50) in assay [2] amounted to 1100 nM.
As to `COc1cncc2nc(-c3c[nH]nc3C)nc(N3CCC4(CCN(CC5COC5)C4)CC3)c12` [Compound 273, 5-methoxy-2-(3-methyl-1H-pyrazol-4-yl)-4-(2-(oxetan-3-ylmethyl)-2,8-diazaspiro[4.5]decan-8-yl)pyrido[3,4-d]pyrimidine], in assay [1], the Ki came to 0.043 nM. In assay [2], the response was half-maximal at 260 nM (EC50).
`FC(F)Oc1cncc2nc(-c3ccncc3)nc(N3CCC4(CCNC4)CC3)c12` [Compound 274, 5-(difluoromethoxy)-2-(pyridin-4-yl)-4-(2,8-diazaspiro[4.5]decan-8-yl)pyrido[3,4-d]pyrimidine]: the inhibitory constant (Ki) in assay [1] is 0.02 nM. This molecule also displayed an EC50 in assay [2] of 180 nM.
With `COc1cnc(Cl)c2nc(-c3ccncc3)nc(N3CCC4(CCN(C)C4)CC3)c12` [Compound 275, 8-chloro-5-methoxy-4-(2-methyl-2,8-diazaspiro[4.5]decan-8-yl)-2-(pyridin-4-yl)pyrido[3,4-d]pyrimidine], the Ki in assay [1] worked out at 0.02 nM. The EC50 in assay [2] stood at 310 nM.
`COCC1CC2(CCN(c3nc(-c4ccncc4)nc4cncc(OC)c34)CC2)CN1` (stereo not shown) [Compound 276, 5-methoxy-4-(3-(methoxymethyl)-2,8-diazaspiro[4.5]decan-8-yl)-2-(pyridin-4-yl)pyrido[3,4-d]pyrimidine] had a Ki in assay [1] of 0.19 nM. The molecule also had an EC50 in assay [2] of 410 nM.
In the same order, the values of `CN1CCC2(CCN(c3nc(-c4ccncc4)nc4cncc(OC5CC(C#N)C5)c34)CC2)C1` (stereo not shown) [Compound 277, 3-((4-(2-Methyl-2,8-diazaspiro[4.5]decan-8-yl)-2-(pyridin-4-yl)pyrido[3,4-d]pyrimidin-5-yl)oxy)cyclobutane-1-carbonitrile] are 0.11 nM and 290 nM.
Taken in the same sequence, the figures for `COc1cncc2nc(-c3ccncc3)nc(N3CCC4(CCNC4=O)CC3)c12` [Compound 279, 8-(5-methoxy-2-(pyridin-4-yl)pyrido[3,4-d]pyrimidin-4-yl)-2,8-diazaspiro[4.5]decan-1-one] were 4.5 nM and 5300 nM.
Taken in the same sequence, the figures for `COc1cncc2nc(-c3ccncc3)nc(N3CCC4(CCN(CC(F)F)C4)CC3)c12` [Compound 280, 4-(2-(2,2-difluoroethyl)-2,8-diazaspiro[4.5]decan-8-yl)-5-methoxy-2-(pyridin-4-yl)pyrido[3,4-d]pyrimidine] were 0.039 nM and 570 nM.
With `c1cc(-c2cc3cnccc3c(N3CCC4(CCNC4)CC3)n2)ccn1` [Example 199, 3-(Pyridin-4-yl)-1-(2,8-diazaspiro[4.5]decan-8-yl)-2,6-naphthyridine], the Ki in assay [1] is 3.3 nM. The same molecule had a 50% effective concentration (EC50) in assay [2] of 6100 nM.
Molecule `CCc1cncc2nc(-c3ccncc3)nc(N3CCC4(CCNC4)CC3)c12` [Example 204, 5-Ethyl-2-(pyridin-4-yl)-4-(2,8-diazaspiro[4.5]decan-8-yl)pyrido[3,4-d]pyrimidine] yielded an inhibition constant Ki in assay [1] of 1.1 nM. In assay [2], this molecule had an EC50 of 1000 nM.
Taken in the same sequence, the figures for `OC1(CN2CCC3(CCN(c4nc(-c5ccncc5)nc5cnccc45)CC3)C2)CCC1` [Example 205, 1-((8-(2-(Pyridin-4-yl)pyrido[3,4-d]pyrimidin-4-yl)-2,8-diazaspiro[4.5]decan-2-yl)methyl)cyclobutan-1-ol] were 0.23 nM and 170 nM.
In turn, `OCC1CC2(CCN(c3nc(-c4ccncc4)nc4cnccc34)CC2)CN1C1CCCC1` (stereo not shown) [Example 206, (2-cyclopentyl-8-(2-(pyridin-4-yl)pyrido[3,4-d]pyrimidin-4-yl)-2,8-diazaspiro[4.5]decan-3-yl)methanol] yielded a Ki in assay [1] of 0.1 nM. The molecule further came in with an EC50 in assay [2] of 170 nM.
Taken in the same sequence, the figures for `OC1(CN2CCC3(CCN(c4nc(-c5ccncc5)nc5cnccc45)CC3)C2)COC1` [Example 211, 3-((8-(2-(Pyridin-4-yl)pyrido[3,4-d]pyrimidin-4-yl)-2,8-diazaspiro[4.5]decan-2-yl)methyl)oxetan-3-ol] were 0.11 nM and 420 nM.
In the same order, the values of `FC(F)c1[nH]ncc1-c1nc(N2CCC3(CCNC3)CC2)c2ccncc2n1` [Example 213, 2-(5-(difluoromethyl)-1H-pyrazol-4-yl)-4-(2,8-diazaspiro[4.5]decan-8-yl)pyrido[3,4-d]pyrimidine] are 0.6 nM and more than 10000 nM.
In the same order, the values of `CNc1cc2c(N3CCC4(CCN(C)C4)CC3)nc(-c3ccncc3)nc2cn1` [Example 214, N-methyl-4-(2-methyl-2,8-diazaspiro[4.5]decan-8-yl)-2-(pyridin-4-yl)pyrido[3,4-d]pyrimidin-6-amine] are 10 nM and 850 nM.
Take `CN(C)S(=O)(=O)CCN1CCC2(CCN(c3nc(-c4ccncc4)nc4cnccc34)CC2)C1` [Example 215, N,N-dimethyl-2-(8-(2-(pyridin-4-yl)pyrido[3,4-d]pyrimidin-4-yl)-2,8-diazaspiro[4.5]decan-2-yl)ethanesulfonamide]: the Ki in assay [1] was found to be 1.2 nM. A half-maximal response in assay [2] (EC50) required 1500 nM.
In the same order, the values of `Cc1n[nH]cc1-c1nc(N2CCC3(CCN(CCF)C3)CC2)c2ccncc2n1` [Example 219, 4-(2-(2-fluoroethyl)-2,8-diazaspiro[4.5]decan-8-yl)-2-(3-methyl-1H-pyrazol-4-yl)pyrido[3,4-d]pyrimidine] are 0.067 nM and 460 nM.
Taken in the same sequence, the figures for `Cc1[nH]ncc1-c1nc(N2CCC3(CCN(CC(F)F)C3)CC2)c2ccncc2n1` [Example 220, 4-(2-(2,2-difluoroethyl)-2,8-diazaspiro[4.5]decan-8-yl)-2-(3-methyl-1H-pyrazol-4-yl)pyrido[3,4-d]pyrimidine] were 0.074 nM and 660 nM.

(Values after patent US20240174696A1, “2,8-DIAZASPIRO[4.5]DECANE COMPOUNDS” (Genentech, Inc., priority 2021, published 2024).)
